{"source": "patent US9011853B2", "about": "“B7-H4 fusion proteins and methods of use thereof” (Amplimmune, Inc., priority 2009, dated 2015)", "test_system": "CD4^+CD62L^+ naïve T cells", "assay": "Mouse Th17 assay, IL-17A ELISA", "type": "cell-based", "protocol": "CD4^+CD62L^+ naïve T cells were isolated from BALB/c mice as in the above examples, and activated by anti-CD3 and anti-CD28 bound beads in the presence of Th17 differntiation cocktail (TGF-β1 (10 ng/mL), IL-6 (50 ng/mL), IL-23 (4 ng/mL), anti-IL-4 (10 μg/mL), anti-IFN-γ (5 μg/mL) and anti-IL-2 (5 μg/mL)). Murine B7-H4-Ig (10 μg/mL) or retinoic acid (RA) (10 μM) was added to the cultures on day 0, day 1, or day 2 of the 4 day culture. IL-17A levels were measured by ELISA at the end of the 4 day culture.\nThe Th17 assay is 4 days in duration. In order to determine when B7-H4-Ig is acting, the Th17 assay was performed with the addition of 10 μg/mL of murine B7-H4-Ig, 10 μg/mL of mouse IgG control, or […] retinoic acid on Day 0, Day 1, or Day 2.\nPeripheral T cells were obtained from spleens and inguinal lymph nodes of 6-9 week old BALB/c mice by mechanical disruption through a cell strainer followed by red blood cell (RBC) lysis.\nNaïve helper T cells (CD4^+CD62L^+) were obtained using the Miltenyi Biotec microbead system. CD4^+ cells are enriched by negative selection, and followed by a positive selection of CD62L^+. In some experiments CD25+ cells were also depleted.\nAfter selection, cells are activated in vitro with anti-CD3/CD28 beads at a 1:1 cell:bead ratio in the presence of the TH17 differentiation cocktail (TGF-β1 (10 ng/ml), IL-6 (50 ng/ml), IL-23 (4 ng/ml), anti-IL-2 (5 μg/ml), anti-IL-4 (10 μg/ml), and anti-IFN-γ (5 μg/ml)). Murine B7-H4-Ig is added at a final concentration of 1.25-20 μg/ml. Retinoic acid (RA) is used as positive control and mouse IgG is used as a negative control.\nAfter 4 days of culture, cultures are spun down and supernatants are harvested and stored at <−65° C. until analyzed for IL-17A levels by ELISA.", "data": [{"smiles": "CC1=C(/C=C/C(C)=C/C=C/C(C)=C/C(=O)O)C(C)(C)CCC1", "note": "[RA, All trans-Retinoic Acid]", "values": [{"measurement": "IL-17A expression (ELISA, day 4)", "setting": "Th17 promoting conditions, relative to control mouse IgG (FIG. 56)", "result": "reduced IL-17A expression"}, {"measurement": "IL-17A inhibition by time of addition", "setting": "murine B7-H4-Ig 10 μg/mL or RA 10 μM (b737 prints 10 mM) added day 0, day 1 or day 2 of 4 day culture (FIG. 53)", "result": "inhibited IL-17A most potently when added at the beginning of the assay (day 0)"}]}]}
